Molecules are shown by their SMILES.

Sequence of Peptidyl-prolyl cis-trans isomerase FKBP1A (P62942 whole entry): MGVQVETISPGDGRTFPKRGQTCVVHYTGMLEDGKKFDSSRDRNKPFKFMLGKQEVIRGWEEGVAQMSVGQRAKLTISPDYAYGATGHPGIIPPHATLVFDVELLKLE

The target in the test is Peptidyl-prolyl cis-trans isomerase FKBP1A (Homo sapiens, UniProt P62942). Put plainly: FKBP12 Assay. From the text:
FKBP12 assay using rapamycin analogs.
As for `CCO[C@@H]1C[C@@H]2CC[C@@H](C)[C@@](O)(O2)C(=O)C(=O)N2CCCC[C@H]2C(=O)O[C@H]([C@H](C)C[C@@H]2CC[C@@H](O)[C@H](OC)C2)CC(=O)[C@H](C)/C=C(\C)[C@@H](O)[C@@H](OC)C(=O)[C@H](C)C[C@H](C)/C=C/C=C/C=C/1C` [Rapamycin C-7, analog 5a], the EC50 came to 10 nM and the Ki turned out to be 3.5 nM.

With `CCO[C@H]1C[C@@H]2CC[C@@H](C)[C@@](O)(O2)C(=O)C(=O)N2CCCC[C@H]2C(=O)O[C@H]([C@H](C)C[C@@H]2CC[C@@H](O)[C@H](OC)C2)CC(=O)[C@H](C)/C=C(\C)[C@@H](O)[C@@H](OC)C(=O)[C@H](C)C[C@H](C)/C=C/C=C/C=C/1C` [Rapamycin C-7, analog 5b], the EC50 was determined as 200 nM and affinity was put at a Ki of 4 nM.

In the case of `CO[C@@H]1C[C@H](C[C@@H](C)[C@@H]2CC(=O)[C@H](C)/C=C(\C)[C@@H](O)[C@@H](OC)C(=O)[C@H](C)C[C@H](C)/C=C/C=C/C=C(\C)[C@H](SC)C[C@@H]3CC[C@@H](C)[C@@](O)(O3)C(=O)C(=O)N3CCCC[C@H]3C(=O)O2)CC[C@H]1O` [Rapamycin C-7, analog 6a], the EC50 amounted to 4 nM and the Ki was determined as 1 nM.

Consider `CO[C@@H]1C[C@H](C[C@@H](C)[C@@H]2CC(=O)[C@H](C)/C=C(\C)[C@@H](O)[C@@H](OC)C(=O)[C@H](C)C[C@H](C)/C=C/C=C/C=C(\C)[C@@H](SC)C[C@@H]3CC[C@@H](C)[C@@](O)(O3)C(=O)C(=O)N3CCCC[C@H]3C(=O)O2)CC[C@H]1O` [Rapamycin C-7, analog 6b], for which the EC50 worked out at 4 nM and the Ki is 1 nM.

In turn, `COC(=O)N[C@@H]1C[C@@H]2CC[C@@H](C)[C@@](O)(O2)C(=O)C(=O)N2CCCC[C@H]2C(=O)O[C@H]([C@H](C)C[C@@H]2CC[C@@H](O)[C@H](OC)C2)CC(=O)[C@H](C)/C=C(\C)[C@@H](O)[C@@H](OC)C(=O)[C@H](C)C[C@H](C)/C=C/C=C/C=C/1C` [Rapamycin C-7, analog 7a] registered an EC50 of over 10000 nM and a Ki of 4.5 nM.

Compound `COC(=O)N[C@H]1C[C@@H]2CC[C@@H](C)[C@@](O)(O2)C(=O)C(=O)N2CCCC[C@H]2C(=O)O[C@H]([C@H](C)C[C@@H]2CC[C@@H](O)[C@H](OC)C2)CC(=O)[C@H](C)/C=C(\C)[C@@H](O)[C@@H](OC)C(=O)[C@H](C)C[C@H](C)/C=C/C=C/C=C/1C` [Rapamycin C-7, analog 7b] yielded an EC50 of 2500 nM and a Ki of 3.7 nM.

Take `COc1ccc([C@@H]2C[C@@H]3CC[C@@H](C)[C@@](O)(O3)C(=O)C(=O)N3CCCC[C@H]3C(=O)O[C@H]([C@H](C)C[C@@H]3CC[C@@H](O)[C@H](OC)C3)CC(=O)[C@H](C)/C=C(\C)[C@@H](O)[C@@H](OC)C(=O)[C@H](C)C[C@H](C)/C=C/C=C/C=C/2C)c(OC)c1` [Rapamycin C-7, analog 8a]: a half-maximal effect (EC50) was put at 1000 nM and the affinity, expressed as Ki, was 9 nM.

Compound `COc1ccc([C@H]2C[C@@H]3CC[C@@H](C)[C@@](O)(O3)C(=O)C(=O)N3CCCC[C@H]3C(=O)O[C@H]([C@H](C)C[C@@H]3CC[C@@H](O)[C@H](OC)C3)CC(=O)[C@H](C)/C=C(\C)[C@@H](O)[C@@H](OC)C(=O)[C@H](C)C[C@H](C)/C=C/C=C/C=C/2C)c(OC)c1` [Rapamycin C-7, analog 8b] had an EC50 of over 1000 nM and a Ki of 38 nM.

Compound `COc1cc(OC)c([C@H]2C[C@@H]3CC[C@@H](C)[C@@](O)(O3)C(=O)C(=O)N3CCCC[C@H]3C(=O)O[C@H]([C@H](C)C[C@@H]3CC[C@@H](O)[C@H](OC)C3)CC(=O)[C@H](C)/C=C(\C)[C@@H](O)[C@@H](OC)C(=O)[C@H](C)C[C@H](C)/C=C/C=C/C=C/2C)c(OC)c1` [Rapamycin C-7, analog 9] had an EC50 of over 1000 nM and an inhibition constant Ki of 7 nM.

In the case of `CO[C@@H]1C[C@H](C[C@@H](C)[C@@H]2CC(=O)[C@H](C)/C=C(\C)[C@@H](O)[C@@H](OC)C(=O)[C@H](C)C[C@H](C)/C=C/C=C/C=C(\C)[C@H](c3ccco3)C[C@@H]3CC[C@@H](C)[C@@](O)(O3)C(=O)C(=O)N3CCCC[C@H]3C(=O)O2)CC[C@H]1O` [Rapamycin C-7, analog 10a], a half-maximal response (EC50) required 20 nM and the Ki is 3 nM.

The compound `CO[C@@H]1C[C@H](C[C@@H](C)[C@@H]2CC(=O)[C@H](C)/C=C(\C)[C@@H](O)[C@@H](OC)C(=O)[C@H](C)C[C@H](C)/C=C/C=C/C=C(\C)[C@@H](c3ccco3)C[C@@H]3CC[C@@H](C)[C@@](O)(O3)C(=O)C(=O)N3CCCC[C@H]3C(=O)O2)CC[C@H]1O` [Rapamycin C-7, analog 10b] returned an EC50 of 20 nM and a Ki of 6 nM.

`CO[C@@H]1C[C@H](C[C@@H](C)[C@@H]2CC(=O)[C@H](C)/C=C(\C)[C@@H](O)[C@@H](OC)C(=O)[C@H](C)C[C@H](C)/C=C/C=C/C=C(\C)[C@H](c3ccc[nH]3)C[C@@H]3CC[C@@H](C)[C@@](O)(O3)C(=O)C(=O)N3CCCC[C@H]3C(=O)O2)CC[C@H]1O` [Rapamycin C-7, analog 11a] displayed an EC50 of 11 nM and a Ki of 10 nM.

Take `CO[C@@H]1C[C@H](C[C@@H](C)[C@@H]2CC(=O)[C@H](C)/C=C(\C)[C@@H](O)[C@@H](OC)C(=O)[C@H](C)C[C@H](C)/C=C/C=C/C=C(\C)[C@@H](c3ccc[nH]3)C[C@@H]3CC[C@@H](C)[C@@](O)(O3)C(=O)C(=O)N3CCCC[C@H]3C(=O)O2)CC[C@H]1O` [Rapamycin C-7, analog 11b]: the midpoint of the response, the EC50, lay at 70 nM and the Ki worked out at 1.5 nM.

In turn, `CO[C@@H]1C[C@H](C[C@@H](C)[C@@H]2CC(=O)[C@H](C)/C=C(\C)[C@@H](O)[C@@H](OC)C(=O)[C@H](C)C[C@H](C)/C=C/C=C/C=C(\C)CC[C@@H]3CC[C@@H](C)[C@@](O)(O3)C(=O)C(=O)N3CCCC[C@H]3C(=O)O2)CC[C@H]1O` [Rapamycin C-7, analog 12] returned an EC50 of 2 nM and a Ki of 1 nM.

Regarding `CO[C@@H]1C[C@H](C[C@@H](C)[C@@H]2CC(=O)[C@H](C)/C=C(\C)[C@@H](O)[C@@H](OC)C(=O)[C@H](C)C[C@H](C)C=CC=CC=C(C)C(=O)C[C@@H]3CC[C@@H](C)[C@@](O)(O3)C(=O)C(=O)N3CCCC[C@H]3C(=O)O2)CC[C@H]1O` [Rapamycin C-7, analog 13], the EC50 amounted to 300 nM and the affinity, expressed as Ki, was 29 nM.

In the case of `CO[C@@H]1C[C@H](C[C@@H](C)[C@@H]2CC(=O)[C@H](C)/C=C(\C)[C@@H](O)[C@@H](OC)C(=O)[C@H](C)C[C@H](C)/C=C/C=C/C=C(\C)[C@H](OCc3ccccc3)C[C@@H]3CC[C@@H](C)[C@@](O)(O3)C(=O)C(=O)N3CCCC[C@H]3C(=O)O2)CC[C@H]1O` [Rapamycin C-7, analog 14a], the EC50 came out at 6 nM and the Ki is 5 nM.

Take `CO[C@@H]1C[C@H](C[C@@H](C)[C@@H]2CC(=O)[C@H](C)/C=C(\C)[C@@H](O)[C@@H](OC)C(=O)[C@H](C)C[C@H](C)/C=C/C=C/C=C(\C)[C@H](OCc3cccc([N+](=O)[O-])c3)C[C@@H]3CC[C@@H](C)[C@@](O)(O3)C(=O)C(=O)N3CCCC[C@H]3C(=O)O2)CC[C@H]1O` [Rapamycin C-7, analog 15a]: a half-maximal response (EC50) required 50 nM and the affinity, expressed as Ki, was 7 nM.

As for `CO[C@@H]1C[C@H](C[C@@H](C)[C@@H]2CC(=O)[C@H](C)/C=C(\C)[C@@H](O)[C@@H](OC)C(=O)[C@H](C)C[C@H](C)/C=C/C=C/C=C(\C)[C@H](OCc3ccc(Cl)cc3)C[C@@H]3CC[C@@H](C)[C@@](O)(O3)C(=O)C(=O)N3CCCC[C@H]3C(=O)O2)CC[C@H]1O` [Rapamycin C-7, analog 16a], the EC50 was found to be 45 nM and the Ki came out at 1 nM.

In the case of `CO[C@@H]1C[C@H](C[C@@H](C)[C@@H]2CC(=O)[C@H](C)/C=C(\C)[C@@H](O)[C@@H](OC)C(=O)[C@H](C)C[C@H](C)/C=C/C=C/C=C(\C)[C@H](OCc3ccc(N=[N+]=[N-])c(I)c3)C[C@@H]3CC[C@@H](C)[C@@](O)(O3)C(=O)C(=O)N3CCCC[C@H]3C(=O)O2)CC[C@H]1O` [Rapamycin C-7, analog 17a], the response was half-maximal at 90 nM (EC50) and the affinity corresponds to a Ki of 30 nM.

As usually defined, the EC50 is the midpoint of the concentration-response curve. Read a low EC50 as a more potent agent. By Ki is commonly meant a measure of affinity in units of concentration, obtained from inhibition or displacement. A low value points to higher affinity.

(Values after BindingDB's records for doi:10.1016/1074-5521(95)90264-3 (Smithkline Beecham Pharmaceuticals, 1995).)
